Data taken from paper PMC5814754, “Quantitative, Wide-Spectrum Kinase Profiling in Live Cells for Assessing the Effect of Cellular ATP on Target Engagement” (Cell Chemical Biology, 2018).

Legend:
AXL = settings: read-out: Live Cell IC50 Phospho Elisa; ref Cui et al., 2011; cited from earlier work
178 full-length kinases [1] = biological target: 178 full-length kinases (Homo sapiens, UniProt P31751); assay: NanoBRET single-dose fractional occupancy profiling of kinase/Nluc library in live HEK293 cells (Table S1); format: binding; set-up: Occupancy, % Replicate 1 / Occupancy, % Replicate 2: unit of the concentration uncertain; settings: AKT2, Nluc C, probe 5 at 1 (unit uncertain)
Sequence of 178 full-length kinases (Homo sapiens, UniProt P31751) (P31751 whole entry): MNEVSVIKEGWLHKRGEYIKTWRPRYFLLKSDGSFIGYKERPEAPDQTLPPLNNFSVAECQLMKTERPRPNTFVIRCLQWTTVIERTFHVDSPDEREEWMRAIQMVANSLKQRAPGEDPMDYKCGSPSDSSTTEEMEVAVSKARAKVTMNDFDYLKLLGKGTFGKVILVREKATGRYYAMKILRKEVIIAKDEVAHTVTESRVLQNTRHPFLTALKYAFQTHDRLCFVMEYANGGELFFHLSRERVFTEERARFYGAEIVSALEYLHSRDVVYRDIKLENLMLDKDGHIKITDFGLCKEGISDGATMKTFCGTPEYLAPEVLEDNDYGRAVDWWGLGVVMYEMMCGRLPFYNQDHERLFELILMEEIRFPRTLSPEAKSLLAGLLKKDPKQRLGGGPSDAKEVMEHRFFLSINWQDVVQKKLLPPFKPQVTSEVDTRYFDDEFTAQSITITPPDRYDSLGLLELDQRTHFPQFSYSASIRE

178 full-length kinases [2] = biological target: 178 full-length kinases (Homo sapiens, UniProt P11309); assay: as above; format: binding; set-up: Occupancy, % Replicate 1 / Occupancy, % Replicate 2: unit of the concentration uncertain; settings: PIM1, Nluc C, probe 5 at 1 (unit uncertain)
178 full-length kinases [3] = biological target: 178 full-length kinases (Homo sapiens, UniProt Q13627); assay: as above; format: binding; set-up: Occupancy, % Replicate 1 / Occupancy, % Replicate 2: unit of the concentration uncertain; settings: DYRK1A, Nluc N, probe 5 at 1 (unit uncertain)
178 full-length kinases [4] = biological target: 178 full-length kinases (Homo sapiens, UniProt Q8IWQ3); assay: as above; format: binding; set-up: Occupancy, % Replicate 1 / Occupancy, % Replicate 2: unit of the concentration uncertain; settings: BRSK2, Nluc N, probe 5 at 0.5 (unit uncertain)
178 full-length kinases [5] = biological target: 178 full-length kinases (Homo sapiens, UniProt P10721); assay: as above; format: binding; set-up: Occupancy, % Replicate 1 / Occupancy, % Replicate 2: unit of the concentration uncertain; settings: KIT, Nluc C, probe 6 at 0.1 (unit uncertain)
Sequence of 178 full-length kinases (Homo sapiens, UniProt P10721) (P10721 26-976): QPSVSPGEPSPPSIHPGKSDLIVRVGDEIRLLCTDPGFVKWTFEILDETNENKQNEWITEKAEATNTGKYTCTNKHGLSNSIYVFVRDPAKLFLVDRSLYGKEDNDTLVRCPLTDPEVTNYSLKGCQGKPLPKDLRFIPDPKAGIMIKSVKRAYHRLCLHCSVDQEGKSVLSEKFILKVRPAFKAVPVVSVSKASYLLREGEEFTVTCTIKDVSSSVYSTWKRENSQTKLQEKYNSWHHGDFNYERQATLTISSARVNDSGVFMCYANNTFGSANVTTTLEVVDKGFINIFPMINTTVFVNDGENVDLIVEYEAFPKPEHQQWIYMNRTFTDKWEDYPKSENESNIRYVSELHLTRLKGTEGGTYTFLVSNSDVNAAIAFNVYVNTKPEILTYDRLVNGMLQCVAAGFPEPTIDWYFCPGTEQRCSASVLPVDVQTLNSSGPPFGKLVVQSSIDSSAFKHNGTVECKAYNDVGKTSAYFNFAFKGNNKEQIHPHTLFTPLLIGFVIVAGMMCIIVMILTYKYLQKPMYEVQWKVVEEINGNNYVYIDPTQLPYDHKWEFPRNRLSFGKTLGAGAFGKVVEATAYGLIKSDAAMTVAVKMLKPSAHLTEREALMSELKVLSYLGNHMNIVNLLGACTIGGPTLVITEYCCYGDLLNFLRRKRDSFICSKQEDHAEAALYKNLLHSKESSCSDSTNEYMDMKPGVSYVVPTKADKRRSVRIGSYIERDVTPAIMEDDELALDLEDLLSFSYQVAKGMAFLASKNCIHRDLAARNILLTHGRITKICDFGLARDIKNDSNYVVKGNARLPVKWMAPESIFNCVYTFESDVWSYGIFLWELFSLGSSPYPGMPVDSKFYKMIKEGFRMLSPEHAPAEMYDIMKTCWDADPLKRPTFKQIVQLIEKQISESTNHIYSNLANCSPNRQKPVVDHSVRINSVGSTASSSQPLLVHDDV

178 full-length kinases [6] = biological target: 178 full-length kinases (Homo sapiens, UniProt Q9NYY3); assay: as above; format: binding; set-up: Occupancy, % Replicate 1 / Occupancy, % Replicate 2: unit of the concentration uncertain; settings: PLK2, Nluc N, probe 5 at 1 (unit uncertain)
Sequence of 178 full-length kinases (Homo sapiens, UniProt Q9NYY3) (Q9NYY3 whole entry): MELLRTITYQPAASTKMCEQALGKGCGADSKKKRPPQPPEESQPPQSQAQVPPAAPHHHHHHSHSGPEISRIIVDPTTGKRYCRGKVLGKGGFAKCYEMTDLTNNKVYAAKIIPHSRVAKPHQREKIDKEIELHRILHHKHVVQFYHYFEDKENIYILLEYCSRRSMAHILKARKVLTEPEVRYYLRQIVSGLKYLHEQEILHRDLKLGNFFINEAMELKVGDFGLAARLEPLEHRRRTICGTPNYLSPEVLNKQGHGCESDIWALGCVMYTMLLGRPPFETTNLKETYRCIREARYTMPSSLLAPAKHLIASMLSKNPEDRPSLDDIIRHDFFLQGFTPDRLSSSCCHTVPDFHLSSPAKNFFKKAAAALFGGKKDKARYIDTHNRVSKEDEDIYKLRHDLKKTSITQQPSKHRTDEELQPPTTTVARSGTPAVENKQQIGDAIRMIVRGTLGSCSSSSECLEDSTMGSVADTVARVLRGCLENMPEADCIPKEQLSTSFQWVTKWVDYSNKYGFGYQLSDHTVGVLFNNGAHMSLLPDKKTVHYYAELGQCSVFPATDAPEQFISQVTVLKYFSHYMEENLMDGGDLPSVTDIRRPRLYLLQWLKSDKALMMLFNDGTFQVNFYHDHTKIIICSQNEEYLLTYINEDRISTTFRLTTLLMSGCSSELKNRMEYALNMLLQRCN

178 full-length kinases [7] = biological target: 178 full-length kinases (Homo sapiens, UniProt O95835); assay: as above; format: binding; set-up: Occupancy, % Replicate 1 / Occupancy, % Replicate 2: unit of the concentration uncertain; settings: LATS1, Nluc C, probe 5 at 0.5 (unit uncertain)
178 full-length kinases [8] = biological target: 178 full-length kinases (Homo sapiens, UniProt Q8NG66); assay: as above; format: binding; set-up: Occupancy, % Replicate 1 / Occupancy, % Replicate 2: unit of the concentration uncertain; settings: NEK11, Nluc N, probe 5 at 1 (unit uncertain)
178 full-length kinases [9] = biological target: 178 full-length kinases (Homo sapiens, UniProt Q9Y2K2); assay: as above; format: binding; set-up: Occupancy, % Replicate 1 / Occupancy, % Replicate 2: unit of the concentration uncertain; settings: SIK3 (NP_079440), Nluc orientation N, probe 6 at 1 (unit uncertain)
Sequence of 178 full-length kinases (Homo sapiens, UniProt Q9Y2K2) (Q9Y2K2 whole entry): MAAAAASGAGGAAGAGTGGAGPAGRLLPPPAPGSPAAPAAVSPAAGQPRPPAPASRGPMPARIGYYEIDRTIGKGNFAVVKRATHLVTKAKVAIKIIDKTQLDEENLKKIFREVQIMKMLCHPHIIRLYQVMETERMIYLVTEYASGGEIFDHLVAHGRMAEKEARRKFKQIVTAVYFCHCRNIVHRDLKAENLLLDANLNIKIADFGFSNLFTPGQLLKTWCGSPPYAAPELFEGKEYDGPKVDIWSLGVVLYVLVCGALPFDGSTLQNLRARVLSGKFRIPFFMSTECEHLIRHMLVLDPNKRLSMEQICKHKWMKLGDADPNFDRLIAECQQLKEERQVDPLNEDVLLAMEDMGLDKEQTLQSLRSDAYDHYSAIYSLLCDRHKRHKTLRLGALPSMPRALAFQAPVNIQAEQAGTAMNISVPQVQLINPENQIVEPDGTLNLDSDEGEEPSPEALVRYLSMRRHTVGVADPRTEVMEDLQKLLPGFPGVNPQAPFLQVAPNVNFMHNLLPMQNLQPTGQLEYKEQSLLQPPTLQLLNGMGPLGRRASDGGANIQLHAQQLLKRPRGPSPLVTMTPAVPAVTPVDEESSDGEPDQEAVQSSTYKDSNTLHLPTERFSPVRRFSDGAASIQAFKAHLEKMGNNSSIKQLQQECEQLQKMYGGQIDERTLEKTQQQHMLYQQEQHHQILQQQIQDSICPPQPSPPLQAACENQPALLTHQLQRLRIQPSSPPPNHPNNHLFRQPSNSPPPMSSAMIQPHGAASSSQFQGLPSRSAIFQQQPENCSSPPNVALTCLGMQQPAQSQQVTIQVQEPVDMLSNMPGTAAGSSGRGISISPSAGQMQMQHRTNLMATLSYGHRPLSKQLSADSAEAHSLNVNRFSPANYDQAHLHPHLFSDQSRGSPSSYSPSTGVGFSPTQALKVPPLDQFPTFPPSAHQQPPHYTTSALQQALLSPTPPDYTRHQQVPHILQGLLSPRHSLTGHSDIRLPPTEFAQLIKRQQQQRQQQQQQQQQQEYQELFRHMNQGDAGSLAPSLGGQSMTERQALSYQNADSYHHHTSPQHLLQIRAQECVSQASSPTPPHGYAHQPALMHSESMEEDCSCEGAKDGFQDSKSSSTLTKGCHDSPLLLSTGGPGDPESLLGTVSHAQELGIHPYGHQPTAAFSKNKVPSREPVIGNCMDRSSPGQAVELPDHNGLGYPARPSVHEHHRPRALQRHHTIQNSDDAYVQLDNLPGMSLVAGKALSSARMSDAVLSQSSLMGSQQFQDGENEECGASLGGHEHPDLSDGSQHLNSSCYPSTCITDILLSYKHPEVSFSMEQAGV

178 full-length kinases [10] = biological target: 178 full-length kinases (Homo sapiens, UniProt P57059); assay: as above; format: binding; set-up: Occupancy, % Replicate 1 / Occupancy, % Replicate 2: unit of the concentration uncertain; settings: SIK1 (NP_001307572), Nluc orientation N, probe 6 at 0.1 (unit uncertain)
Sequence of 178 full-length kinases (Homo sapiens, UniProt P57059) (P57059 whole entry): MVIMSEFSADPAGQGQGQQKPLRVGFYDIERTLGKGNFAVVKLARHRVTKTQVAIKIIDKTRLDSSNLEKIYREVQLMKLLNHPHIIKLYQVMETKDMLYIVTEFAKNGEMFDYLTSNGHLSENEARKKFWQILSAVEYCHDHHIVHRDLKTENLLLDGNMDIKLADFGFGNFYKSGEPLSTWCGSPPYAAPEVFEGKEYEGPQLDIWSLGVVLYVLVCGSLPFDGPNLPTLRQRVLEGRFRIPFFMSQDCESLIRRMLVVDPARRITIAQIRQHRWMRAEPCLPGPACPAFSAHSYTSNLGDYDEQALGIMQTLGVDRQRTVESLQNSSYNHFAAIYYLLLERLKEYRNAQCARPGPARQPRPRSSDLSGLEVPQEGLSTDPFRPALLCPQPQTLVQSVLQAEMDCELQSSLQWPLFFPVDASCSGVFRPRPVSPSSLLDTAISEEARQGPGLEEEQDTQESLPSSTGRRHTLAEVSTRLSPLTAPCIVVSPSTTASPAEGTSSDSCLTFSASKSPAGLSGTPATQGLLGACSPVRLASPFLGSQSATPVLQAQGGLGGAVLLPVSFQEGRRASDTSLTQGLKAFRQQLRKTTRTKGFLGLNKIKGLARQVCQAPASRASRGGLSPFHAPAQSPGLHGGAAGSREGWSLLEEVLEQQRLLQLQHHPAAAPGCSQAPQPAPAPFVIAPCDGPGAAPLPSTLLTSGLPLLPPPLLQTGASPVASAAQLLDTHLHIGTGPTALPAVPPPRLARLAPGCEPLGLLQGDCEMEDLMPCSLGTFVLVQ

178 full-length kinases [11] = biological target: 178 full-length kinases (Homo sapiens, UniProt Q13705); assay: as above; format: binding; set-up: Occupancy, % Replicate 1 / Occupancy, % Replicate 2: unit of the concentration uncertain; settings: ACVR2B, Nluc C, probe 2 at 1 (unit uncertain)
178 full-length kinases [12] = biological target: 178 full-length kinases (Homo sapiens, UniProt Q8TD19); assay: as above; format: binding; set-up: Occupancy, % Replicate 1 / Occupancy, % Replicate 2: unit of the concentration uncertain; settings: NEK9, Nluc N, probe 5 at 1 (unit uncertain)
178 full-length kinases [13] = biological target: 178 full-length kinases (Homo sapiens, UniProt Q99640); assay: as above; format: binding; set-up: Occupancy, % Replicate 1 / Occupancy, % Replicate 2: unit of the concentration uncertain; settings: PKMYT1, Nluc C, probe 2 at 1 (unit uncertain)
178 full-length kinases [14] = biological target: 178 full-length kinases (Homo sapiens, UniProt P22455); assay: as above; format: binding; set-up: Occupancy, % Replicate 1 / Occupancy, % Replicate 2: unit of the concentration uncertain; settings: FGFR4, Nluc C, probe 5 at 1 (unit uncertain)
178 full-length kinases [15] = biological target: 178 full-length kinases (Homo sapiens, UniProt Q00535); assay: as above; format: binding; set-up: Occupancy, % Replicate 1 / Occupancy, % Replicate 2: unit of the concentration uncertain; settings: CDK5, Nluc C, probe 5 at 1 (unit uncertain)
Sequence of 178 full-length kinases (Homo sapiens, UniProt Q00535) (Q00535 whole entry): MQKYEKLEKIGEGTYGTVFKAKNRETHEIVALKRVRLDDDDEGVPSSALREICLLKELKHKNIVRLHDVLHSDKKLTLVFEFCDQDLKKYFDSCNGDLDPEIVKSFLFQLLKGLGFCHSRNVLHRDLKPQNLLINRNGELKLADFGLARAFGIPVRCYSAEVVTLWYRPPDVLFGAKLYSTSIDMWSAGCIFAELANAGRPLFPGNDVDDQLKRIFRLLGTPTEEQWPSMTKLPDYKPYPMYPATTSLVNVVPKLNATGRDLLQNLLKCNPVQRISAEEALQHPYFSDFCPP

178 full-length kinases [16] = biological target: 178 full-length kinases (Homo sapiens, UniProt P09769); assay: as above; format: binding; set-up: Occupancy, % Replicate 1 / Occupancy, % Replicate 2: unit of the concentration uncertain; settings: FGR, Nluc N, probe 6 at 0.5 (unit uncertain)
Sequence of 178 full-length kinases (Homo sapiens, UniProt P09769) (P09769 whole entry): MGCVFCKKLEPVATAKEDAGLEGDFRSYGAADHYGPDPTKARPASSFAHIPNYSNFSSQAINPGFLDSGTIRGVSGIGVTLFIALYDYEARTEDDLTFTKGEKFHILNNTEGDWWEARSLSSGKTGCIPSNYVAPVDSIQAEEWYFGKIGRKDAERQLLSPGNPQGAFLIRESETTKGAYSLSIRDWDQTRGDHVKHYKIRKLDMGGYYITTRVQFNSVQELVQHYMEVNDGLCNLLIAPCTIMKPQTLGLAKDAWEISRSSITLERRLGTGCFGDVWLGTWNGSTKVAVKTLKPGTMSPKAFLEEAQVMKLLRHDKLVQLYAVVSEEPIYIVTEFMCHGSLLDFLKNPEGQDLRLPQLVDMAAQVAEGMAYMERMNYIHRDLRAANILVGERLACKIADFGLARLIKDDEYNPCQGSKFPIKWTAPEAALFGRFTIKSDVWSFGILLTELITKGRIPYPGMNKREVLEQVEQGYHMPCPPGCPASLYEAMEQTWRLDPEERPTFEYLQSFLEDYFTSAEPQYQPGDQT

178 full-length kinases [17] = biological target: 178 full-length kinases (Homo sapiens, UniProt Q08881); assay: as above; format: binding; set-up: Occupancy, % Replicate 1 / Occupancy, % Replicate 2: unit of the concentration uncertain; settings: ITK, Nluc N, probe 5 at 0.01 (unit uncertain)
TRKA = settings: read-out: Crizotinib IC50 Biochemical; ref Cui et al., 2011; cited from earlier work
LCK = settings: read-out: cellular potency (phospho-ELISA), ref Cui et al., 2011; cited from earlier work
TRKB = settings: read-out: Live Cell IC50 Phospho Elisa; ref Cui et al., 2011; cited from earlier work

**Q.** Which results are given for `C[C@@H](Oc1cc(-c2cnn(C3CCNCC3)c2)cnc1N)c1c(Cl)ccc(F)c1Cl` [Crizotinib]?
**A.** IC50 (AXL): […]; Occupancy, % Replicate 1 (178 full-length kinases [1]): No Binding; Occupancy, % Replicate 2 (178 full-length kinases [1]): No Binding; Occupancy, % Replicate 1 (178 full-length kinases [2]): No Binding; Occupancy, % Replicate 1 (178 full-length kinases [3]): No Binding; Occupancy, % Replicate 2 (178 full-length kinases [3]): No Binding; Occupancy, % Replicate 2 (178 full-length kinases [4]): No Binding; Occupancy, % Replicate 1 (178 full-length kinases [5]): No Binding; Occupancy, % Replicate 2 (178 full-length kinases [5]): No Binding; Occupancy, % Replicate 1 (178 full-length kinases [6]): No Binding; Occupancy, % Replicate 2 (178 full-length kinases [6]): No Binding; Occupancy, % Replicate 1 (178 full-length kinases [7]): No Binding; Occupancy, % Replicate 2 (178 full-length kinases [8]): No Binding; Occupancy, % Replicate 1 (178 full-length kinases [9]; replicate 1): No Binding; Occupancy, % Replicate 2 (178 full-length kinases [9]; replicate 2): No Binding; Occupancy, % Replicate 1 (178 full-length kinases [10]; replicate 1): No Binding; Occupancy, % Replicate 2 (178 full-length kinases [10]; replicate 2): No Binding; Occupancy, % Replicate 1 (178 full-length kinases [11]): No Binding; Occupancy, % Replicate 1 (178 full-length kinases [12]): No Binding; Occupancy, % Replicate 1 (178 full-length kinases [13]): No Binding; Occupancy, % Replicate 1 (178 full-length kinases [14]): No Binding; Occupancy, % Replicate 1 (178 full-length kinases [15]): No Binding; Occupancy, % Replicate 2 (178 full-length kinases [15]): No Binding; Occupancy, % Replicate 2 (178 full-length kinases [16]): No Binding; Occupancy, % Replicate 1 (178 full-length kinases [17]): No Binding; IC50 (TRKA): […]; IC50 (LCK): […]; IC50 (TRKB): […]
